Reference: patent US8822640B2, “Tetrameric streptavidin mutein with reversible biotin binding capability” (UTI Limited Partnership, priority 2011, dated 2014)
Entries after “also recorded” stand apart in the source; their conditions may differ. Where two headings read alike, the source gives them in different places. Values belong to the substance of their own block, whether it stands above or below them.

Columns and labels:
[1] = known value, cited from earlier work
[2] = literature values, cited from earlier work
[3] = Ligand energy inspector, Molegro molecular viewer (MolDock score), biotin binding pocket of subunit A
Procedure: Replacement of residues in loop7-8 of the wild-type streptavidin results in allowing loop7-8 to become flexible and changing the relative orientation of subunits in the tetrameric structure. These structural changes lead to lowering of the biotin binding affinity in the 8-aa-loop-H127C mutein. The strength of biotin interaction with streptavidin was analyzed using the ligand energy inspector function in the Molegro molecular viewer program (Thomsen and Christensen, 2006). The more the negative value indicates the stronger interaction. […] In reference to the wild-type streptavidin, a few residues in the 8-aa-loop-H127C mutein have a little bit stronger interactions with biotin (data not shown). However, the net outcome is that the 8-aa-loop-H127C mutein has a weaker biotin binding affinity.

[4] = BIAcore biosensor kinetic parameters of biotin binding in streptavidin muteins; conditions: for ka or kon / kd or koff / Kd: BIAcore, biotinylated IgG on chip, mutein injected; for Kd: read-out: Kd (biotin binding affinity); for t1/2, half-life of biotin in the SAV-biotin complex: estimated as 0.693/koff/60
Procedure: The kinetic parameters for these muteins were determined using the BIAcore biosensor. Biotinylated IgG proteins were immobilized to the sensor chip and purified streptavidin muteins were injected to determine the binding properties:
(§1) Other methods. BIAcore biosensor for determining the kinetic parameters, preparation of streptavidin-agarose matrix and purification of biotinylated proteins were performed as previously described (Wu and Wong, 2005a; Wu and Wong, 2005b).

[5] = system: biotinylated protein G and biotinylated IgG; experiment: Mutein-agarose affinity matrix: purification of biotinylated proteins, matrix stability and reuse; conditions: comparison of FIGS. 7 and 10
Procedure: as §1
Stable subunit interactions in the 8-aa-loop-H127 mutein. The purified 8-aa-loop-H127C mutein can be immobilized to the agarose matrix with an estimated concentration of 3.8 mg/ml of settled agarose beads. […] Since it is likely that only one subunit in an tetrameric 8-aa-loop-H127C mutein was chemically coupled to the matrix (the other three subunits associated with the immobilized subunit via non-covalent interactions), this observation illustrates that the subunit interactions between the subunits in the tetrameric 8-aa-loop-H127C mutein were stable enough and the non-covalently associated subunits were not washed off from the column under the conditions used for the binding, washing and elution processes.
Application of the 8-aa-loop-H127C mutein-agarose matrices for purification of biotinylated protein G and biotinylated IgG. […] The bound biotinylated proteins could be eluted off from the column using 4 mM biotin (FIGS. 7 and 8).

[6] = Binding to biotin-agarose, elution with 4 mM biotin, rebinding after dialysis
Procedure: In order to characterize these muteins, it is essential to purify each of these muteins for further analyses. […] After dialysis to remove any biotin from the pooled elution fraction, the purified muteins could rebind to the biotin-agarose matrix and could be eluted off again by 4 mM biotin in the buffer. This indicates the reversible biotin binding capability in these muteins.
Production and affinity purification of streptavidin muteins. Bacillus subtilis cells carrying the expression vectors were cultivated in super-rich medium (Wu et al., 2002) at 30° C. for 9-12 hours. Culture supernatant was collected by centrifugation and streptavidin muteins were affinity purified using biotin-agarose as described previously (Wu and Wong, 2005a).
Bound biotin in the 8-aa-loop-H127C mutein can be removed by dialysis. Purified 8-aa-loop-H127C muteins eluted from the biotin agarose by 4 mM biotin will contain bound biotin. If biotin binding is reversible, bound biotin should be removable by dialysis. Indeed, the dialyzed 8-aa-loop-H127C muteins could rebind to the biotin-agarose column and could be eluted off from the column by 4 mM biotin in the elution buffer (FIG. 5). […] Some 8-aa-loop-H127C mutein molecules could be observed in the flow-through fraction. This is probably because of overloading the column with excess muteins.

- Difference (wild-type − mutein), Asn 23 ([3]; residue contribution): −1.1
- Difference (wild-type − mutein), Asp128 ([3]; residue contribution): −3.3
- Difference (wild-type − mutein), Leu 25 ([3]; residue contribution): −0.8
- Difference (wild-type − mutein), Lys 121 (from subunit D) ([3]; residue contribution): −1.3
- Difference (wild-type − mutein), Ser 45 ([3]; residue contribution): −1.4
- Difference (wild-type − mutein), Trp 120 (from subunit D) ([3]; residue contribution): −10.5
- Difference (wild-type − mutein), MolDock score ([3]; total): −14.4
- ka or kon [4]: 22100 M⁻¹ s⁻¹
- kd or koff [4]: 0.000428 s⁻¹
- Kd [4]: 19 nM
- t1/2, half-life of biotin in the SAV-biotin complex [4]: 27 min
Substance: 8-aa-loop-H127C mutein: tetrameric streptavidin mutein, loop7-8 replaced by D S S N G S D G, with H127C mutation (SEQ ID NO: 14) (DSSNGSDG; listed as Bacillus subtilis)
- binding capacity of the matrix for biotinylated protein G [5]: much better binding capacity than the matrix with the Roche streptavidin mutein
- reversible biotin binding [6]: can bind to biotin-agarose and can be eluted off from the matrix by 4 mM biotin; also recorded: biotin binds to this protein in a reversible manner

- ka or kon [4]: 24300 M⁻¹ s⁻¹
- kd or koff [4]: 7.59e-05 s⁻¹
- t1/2, half-life of biotin in the SAV-biotin complex [4]: 152 min
Substance: 6-aa-loop mutein: streptavidin mutein with engineered loop7-8 D S N G S G (SEQ ID NO: 16) (DSNGSG; listed as Bacillus subtilis)

- ka or kon [4]: 49600 M⁻¹ s⁻¹
- kd or koff [4]: 0.0004 s⁻¹
- Kd ([4]; listed as ΔW-HC): 8.1 nM
- Kd [4]: ~1 nM
- t1/2, half-life of biotin in the SAV-biotin complex [4]: 28.9 min
Substance: ΔWHC: streptavidin mutein with Trp-120 deleted (loop T T E A N A K) and H127C mutation (SEQ ID NO: 13) (TTEANAK; listed as Bacillus subtilis)

The next lines start with the substance.

Substance: Wild-type streptavidin: 52,800 dalton tetrameric protein from Streptomyces avidinii, SEQ ID NO:1
- isoelectric point (pI) [1]: ~5
- isoelectric point (pI) ([1]; listed as natural streptavidin): 5-6
- dissociation constant (Kd) for biotin [2]: 10^−13 to 10^−14 M

Substance: W120A mutein: streptavidin mutein with Trp-120 changed to alanine [reference compound]
- Kd ([2]; read-out: dissociation constant (Kd) for biotin): 3 nM
